Reference: patent US20260174786A1, “A NITROGEN-CONTAINING SPIROCYCLIC COMPOUND, PHARMACEUTICAL COMPOSITION AND USE THEREOF” (Prime Gene Therapeutics Co., Ltd., priority 2022, published 2026)

Key:
[1] = Pharmacokinetic experiments in male SD rats; assay type: in vivo, rat
Method: Male SD rats were grouped in groups of 3 rats each and orally administered with the compound of Example (10 mg/kg) and intravenously injected with the compound of Example (2 mg/kg). Animals were fasted overnight before the experiment, from 10 hours before administration to 4 hours after administration. Blood samples were collected at 0.25, 0.5, 1, 2, 4, 8, and 24 hours after administration in the oral group, and at 0.083, 0.25, 0.5, 1, 2, 4, 8, and 24 hours after injection in the intravenous group. After anesthesia with isoflurane using a small animal anesthesia machine, 0.3 mL of whole blood was collected through the retinal venous plexus, and placed in a heparin anticoagulant tube. The sample was centrifuged at 4° C. and 4000 rpm for 5 minutes, and the plasma was transferred to the centrifuge tube and stored at −80° C. until analysis. The plasma samples were extracted using protein precipitation method, and the extract was analyzed by LC-MS/MS.

[2] = Liver microsome metabolism stability test (rat); assay type: in vitro ADME; conditions: rat liver microsomes, 1 μM compound
Method: Two separate experiments were conducted. a) NADPH: 10 μL of 20 mg/mL liver microsomes and 40 μL of 10 mM NADPH were added to a culture medium. The final concentrations of microsomes and NADPH were 0.5 mg/mL and 1 mM, respectively. b) NADPH free: 10 μL of 20 mg/mL liver microsomes and 40 μL of ultrapure H2O were added to a culture medium. The final concentration of microsomes was 0.5 mg/mL.
At the beginning of the reaction, 4 μL of 100 μM test compound solution or a control compound solution with a final concentration of 1 μM were added, and proceed at 37° C.
50 μL aliquots were taken from the reaction solution at 0, 7, 15, 30, and 60 minutes. The reaction was stopped by adding 4 volumes of cold acetonitrile and IS (100 nM alprazolam, 200 nM labetalol, 200 nM caffeine, and 2 μM ketoprofen). The samples were centrifuged at 3220 grams for 40 minutes. 100 μL supernatant divided equally was mixed with 100 μL of ultrapure H2O, and use for LC-MS/MS analysis.

hTRPV1 = hTRPV1 (Homo sapiens, UniProt Q8NER1); experiment: Inhibition rate on different hTRPs: hTRPV1; assay type: cell-based
Chain of hTRPV1 (Q8NER1 whole entry): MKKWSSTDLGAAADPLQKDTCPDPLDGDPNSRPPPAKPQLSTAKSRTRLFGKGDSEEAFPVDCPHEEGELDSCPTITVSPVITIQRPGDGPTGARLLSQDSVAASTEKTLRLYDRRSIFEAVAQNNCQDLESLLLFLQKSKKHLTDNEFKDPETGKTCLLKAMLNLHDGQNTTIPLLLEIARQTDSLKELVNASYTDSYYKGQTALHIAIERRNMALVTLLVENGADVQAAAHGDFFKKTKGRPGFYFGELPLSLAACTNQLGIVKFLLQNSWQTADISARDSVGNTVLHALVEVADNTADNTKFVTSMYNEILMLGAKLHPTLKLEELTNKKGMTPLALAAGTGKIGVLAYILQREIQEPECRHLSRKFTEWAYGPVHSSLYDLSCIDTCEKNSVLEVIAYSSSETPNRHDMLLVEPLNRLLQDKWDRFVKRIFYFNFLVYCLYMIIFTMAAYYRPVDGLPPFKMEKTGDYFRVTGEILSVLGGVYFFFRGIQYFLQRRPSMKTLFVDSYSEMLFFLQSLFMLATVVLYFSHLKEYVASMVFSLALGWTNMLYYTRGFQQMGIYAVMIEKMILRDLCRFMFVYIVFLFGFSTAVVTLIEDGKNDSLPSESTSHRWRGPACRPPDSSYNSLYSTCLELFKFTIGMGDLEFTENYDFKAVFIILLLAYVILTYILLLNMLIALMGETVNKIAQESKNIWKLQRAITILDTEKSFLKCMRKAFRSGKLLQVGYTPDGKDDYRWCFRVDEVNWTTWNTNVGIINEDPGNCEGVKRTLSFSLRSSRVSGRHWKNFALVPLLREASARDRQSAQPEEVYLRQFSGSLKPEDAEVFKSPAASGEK

[3] = Stability assessment of compounds at room temperature under 92.5% humidity (LC-MS); assay type: physicochemical; conditions: 92.5% humidity
Method: Taking the compound of Example 21 and KM-001-E1 in WO2021154966A1 as examples, the stability thereof was compared:
Compound of Example 21 and KM-001-E1 were accurately weighed and placed in penicillin bottles, and placed at room temperature under 92.5% humidity (open) conditions for 5-10 days to investigate the stability of the compounds.
• instrument: Thermo U3000-ISQEC • column: Xtimate UHPLC C18 1.8 μm 4.6*50 mm • Column temperature: 35° C. • wavelength: 210 nm, 254 nm • mobile phase A: 0.05% formic acid aqueous solution; mobile phase B: 0.05% formic acid acetonitrile; gradient: 30% B 0-1.2 min, 95% B 1.2-3.3 min, 30% B 3.3-4.5 min;
Analyzing the degradation impurities of each compound under 92.5% humidity conditions using LC-MS: The main impurities in Example 21 had m/z 427.17, with a retention time of 2.55 minutes. After being left for 10 days, the peak area proportion was only 0.3%; The main impurities in KM-001-E1 has m/z=431.14 and m/z=415.16, with retention times of 2.31 minutes and 2.64 minutes, respectively. […] Based on LC-MS and NMR data analysis, it can be inferred that the main impurities produced in Example 21 are ketones, while the main impurities produced in KM-001-E1 are aldehydes and carboxylic acids.

[4] = male, SD, rat, plasma, intravenous, 2 mg/kg
[5] = male, SD, rat, plasma, po, gavage, 10 mg/kg

F ([1]; gavage, 10 mg/kg)	AUC(0-inf) [1, 4]	C0 [1, 4]	clearance [1, 4]	half-life [1, 4]	Vd ([1]; male, SD, rat, plasma, intravenous, 2 mg/kg, read-out: Vss)	AUC(0-inf) [1, 5]	Cmax [1, 5]	Tmax [1, 5]	half-life [1, 5]	in vitro Clint [2]	half-life at 1 μM ([2]; read-out: in vitro T1/2)	inhibition at 0.3 µM (hTRPV1; hTRPV1, 0.3 μM)	Selectivity ratio (hTRPV1; inhibition rate on TRPV3 / inhibition rate on hTRPV1, 0.3 μM)	SMILES	stability compared with KM-001-E1 / compounds of WO2021154966A1 [3]
80.6%	10500 ng·h/mL	4060 ng/mL	3.3 mL/min/kg	1.63 h	0.41 L/kg	42200 ng·h/mL	8050 ng/mL	1.33 h	1.88 h	53.68 microliters/minute/milligrams	0.43 h	–	–	O=C(c1ccc(F)cn1)N1CCC2(CC(O)c3cc(-c4ccccc4C4CC4)ccc32)C1 (stereo not drawn) [Example 15, (5-(2-cyclopropylphenyl)-3-hydroxy-2,3-dihydrospiro[indene-1,3′-pyrrolidine]-1′-yl)(5-fluoropyridin-2-yl) ketone]	–
–	–	–	–	–	–	–	–	–	–	–	–	5.62%	16.0X	O=C(c1ccc(F)cn1)N1CC[C@@]2(C[C@@H](O)c3cc(-c4ccccc4C4CC4)ccc32)C1 [Example 21, ((1S,3R)-5-(2-cyclopropylphenyl)-3-hydroxy-2,3-dihydrospiro[indene-1,3′-pyrrolidine]-1′-yl)(5-fluoropyridin-2-yl)ketone]	better chemical stability than the primary alcohol compound in WO2021154966A1
